Assay results taken from patent US20210100905A1, “APPLICATION OF COMPOUND OR TRADITIONAL CHINESE MEDICINE EXTRACT IN PREPARATION OF NUCLEIC ACID DELIVERY AGENT, AND RELATED PRODUCTS” (INSTITUTE OF BASIC MEDICAL SCIENCES CHINESE ACADEMY OF …, priority 2018, published 2021).

Assays:
A549 cells = assay: Digital PCR (ddPCR) detection of the efficiency of nucleic acid delivery by lipid; assay type: cell-based, human; conditions: boiling or reverse evaporation method; samples after 6 hours (No. 39: reverse evaporation, 6 and 12 hours)
Excerpt: 2.1 Experimental materials: A549 cells were purchased from the Cell Center of the Institute of Basic Medical Sciences, Chinese Academy of Medical Sciences, TRIzol lysis buffer was purchased from Sigma, High capacity cRNA Reverse Transcription Kit was purchased from ABI, USA, and the digital PCR related reagents were purchased from Bio-Rad USA.
(§1) 2.2 Experimental method: the total cellular RNA was collected and extracted by TRIzol lysis buffer according to the above methods, and reverse transcribed to cDNA using High capacity cRNA Reverse Transcription Kit, and the cDNA from different groups was subject to digital PCR reaction. Refering to the QX200 Droplet Reader and QuantaSoft Software manual for the protocols, the results were analyzed using QuantaSoft software.
as §1, with “method:” for “method: the”, “total” for “total cellular”, “method,” for “methods,”, “subjected” for “subject”, “Refer” for “Refering”, “protocols;” for “protocols,”
(§2) 2.2 Experimental method: Total RNA was collected and extracted by TRIzol lysis buffer according to the above method, and reverse transcribed to cDNA using TaqMan™ MicroRNA Reverse Transcription KitHigh, and the cDNA from different groups was subjected to digital PCR reaction. Refer to the QX200 Droplet Reader and QuantaSoft Software manual for the protocols; the results were analyzed using QuantaSoft software.
as §2, with “reversed” for “reverse transcribed”, “High capacity cRNA” for “TaqMan™ MicroRNA”, “Kit,” for “KitHigh,”

[1] = system: A549 cell (human lung adenocarcinoma cell); assay: In vitro delivery of lipid nucleic acid mixture, RT-qPCR of intracellular small RNA; assay type: cell-based; conditions: single lipid prepared by boiling or reverse evaporation method; RNA 100 nM; FIGS. 76, 91, 96, 99, 104, 106, 107
Description: 3.1 NCI-N87 cell (gastric cancer cell), MRC-5 cell (lung fibroblast), A549 cell (lung cancer cell) were cultured to logarithmic growth phase, and then plated to a six-well plate at cell density of 1×10^6/2 mL medium/well; MRC-5 cell was cultured in Eagle's MEM medium (MEM, Gibco); A549 cell was cultured in Ham's F-12 medium (HyClone); NCI-N87 cell was cultured in RPMI-1640 medium (HyClone); followed by incubation overnight at 37° C., and the follow-up experiments were performed after the cells were attached to the walls.
3.3 After co-incubation with the small RNA for 3 hours, the cells were washed 2-3 times with PBS. The cells were harvested with TRIzol lysis buffer, and the total RNA was extracted. The abundance of small RNA that entered cells was detected by RT-qPCR, and the localization of RNA was detected by fluorescence in situ hybridization; protocols of each detection method were as follows:
1) The sRNA was reverse transcribed to cDNA: Reverse Transcription Kit (High-Capacity cDNA Reverse Transcription Kits, Applied Biosystems, cat. No. 4368813) was used to reverse transcribe sRNA into cDNA by stem-loop method, and the reverse transcription system was as follows: RNA template (150 ng/μl) 10 μl, 10×RT buffer, 2.0 μl, 25× dNTP Mix (100 mM) 0.8 μl, U6 RT stem-loop primer 2.0 μl, HJT-sRNA-RT-m7 stem-loop primer 2.0 μl, MultiScribe™ reverse transcriptase 1.0 μl, RNase inhibitor 1.0 μl, nuclease-free H2O 1.2 μl, loaded into a PCR reactor after brief centrifugation, the reaction conditions were as follows: (1) 25° C., 10 min; (2) 37° C., 120 min; (3) 85° C., 5 min; (4) 4° C., termination of the reaction. 20 μl RNase-free ddH2O was added to make up the final volume to 40 μl after the reaction. The stem-loop primer used in the reverse transcription process was synthesized by Beijing Tsingke Biotechnology Co., Ltd.
2) Quantitative PCR amplification reaction: the qPCR reaction system has a total volume of 10 μl, containing: 5 μL 2×SYBR Green Master Mix, 0.5 μl forward primer ([…]), 0.5 μl reverse primer (10 μM), 1 μl cDNA by reverse transcription, 3 RNase-free dH2O. LightCycler 480 fluorescence quantitative PCR instrument was used, and the PCR reaction conditions were: 95° C. for 5 min for pre-denaturation, followed by PCR amplification cycle: (1) 95° C., 10 s; (2) 55° C., 10 s; (3) 72° C. , 20 s; a total of 40 cycles; 40° C. for 10 s in the end to cool down. Both the forward and reverse primers of the amplification reaction were designed and synthesized by Beijing Tsingke Biotechnology Co., Ltd.
3) The relative expression level was calculated by 2-ΔCt method.
100 μl lipid in diethyl ether solution was prepared, and grouped according to the lipid numbers shown in Table 1 (the lipid concentrations are shown in the table below). To the lipid solution was added 20 μl nucleic acid solution (HJT sRNA or siRNA) at the volume ratio of 5:1, and sonicated for after 3 min. The diethyl ether was removed by evaporation at 55° C., and then 100 μl DEPC water was added for hydration to give nucleic acid lipid mixture.
100 μL of the nucleic acid solution (HJT sRNA or siRNA) was added to 2-5 μL of the lipid in chloroform (the concentration was shown in Table 1), mixed, and heated at 80-100° C. for 15-30 min to give nucleic acid lipid mixture.
3.1.1 MRC-5 cell (pulmonary embryonic fibroblast), A549 cell (human lung adenocarcinoma cell), Caco-2 cell (human colon adenocarcinoma cell) (purchased from the Cell Resource Center of the Institute of Basic Medical Sciences, Chinese Academy of Medical Sciences) were cultured to logarithmic growth phase, then plated into 12-well plates at a cell density of 6×10^5/1 mL medium/well; MRC-5 and Caco-2 cells were cultured in Eagle's MEM medium (MEM, Gibco); A549 cells were cultured in Ham's F-12 medium (HyClone); followed by incubation overnight at 37° C., and the follow-up experiments were performed after the cells were attached to the walls. […]

SMILES: CCCCCC/C=C\CCCCCCCCCC(=O)O[C@H](COC(=O)CCCCCCC/C=C\CCCCCC)COP(=O)(O)OCCN [No. 39, (2-aminoethoxy) [(2R)-3-[(9Z)-hexadec-9-enoyloxy]-2-[(11Z)-octadec-11-enoyloxy]propoxy] phosphinic acid]
- delivery of HJT-sRNA-m7 dsRNA into A549 cells (ddPCR) (A549 cells): could effectively deliver HJT-sRNA-m7 dsRNA into A549 cells
- delivery of HJT-sRNA-m7 double-stranded RNA into A549 cells (real-time PCR) [1]: delivered double-stranded RNA into A549 cells
